Reference: US20230172204A1 (BASF SE, priority 2020, published 2023)

What was measured:
[1] = test system: Phakopsora pachyrhizi (F129L); assay: Protective control of soybean rust on soybeans (PHAKPA P2); format: in vivo; settings: for PHAKPA (F129L) Disease level (%) P2 at 4 ppm / PHAKPA (F129L) Disease level (%) P2 at 16 ppm: P2 protective, % diseased leaf area; for % PHAKPA (F129L) Disease level P2 at 4 ppm: protective P2, 4 ppm; for % PHAKPA (F129L) Disease level P2 at 4 ppm / % PHAKPA (F129L) Disease level P2 at 16 ppm: soybean rust F129L; for % PHAKPA (F129L) Disease level P2 at 16 ppm: protective P2, 16 ppm
[2] = test system: Phakopsora pachyrhizi (F129L); assay: Protective control of soybean rust on soybeans (PHAKPA P6); format: in vivo; settings: for PHAKPA (F129L) Disease level (%) P6 at 4 ppm / PHAKPA (F129L) Disease level (%) P6 at 16 ppm: P6 protective, % diseased leaf area; for % PHAKPA (F129L) Disease level P6 at 4 ppm: protective P6, 4 ppm; for % PHAKPA (F129L) Disease level P6 at 4 ppm / % PHAKPA (F129L) Disease level P6 at 16 ppm: soybean rust F129L; for % PHAKPA (F129L) Disease level P6 at 16 ppm: protective P6, 16 ppm

Structure (SMILES)	PHAKPA (F129L) Disease level (%) P2 at 4 ppm [1]	% PHAKPA (F129L) Disease level P2 at 4 ppm [1]	% PHAKPA (F129L) Disease level P2 at 16 ppm [1]	PHAKPA (F129L) Disease level (%) P6 at 4 ppm [2]	% PHAKPA (F129L) Disease level P6 at 4 ppm [2]	% PHAKPA (F129L) Disease level P6 at 16 ppm [2]	PHAKPA (F129L) Disease level (%) P2 at 16 ppm [1]	PHAKPA (F129L) Disease level (%) P6 at 16 ppm [2]
CNC(=O)/C(=N/OC)c1cccc(C)c1CO/N=C(\C)c1ccc(Cl)c(Cl)c1 [Ex. 41]	4%	15%	9%	35%	36%	14%	–	–
CO/N=C(/C(=O)OC)c1cccc(C)c1CO/N=C(\C)c1cccc(Br)c1 [Ex. 56]	–	43%	24%	–	67%	19%	32%	15%
CNC(=O)/C(=N/OC)c1cccc(C)c1CO/N=C(\C)c1cccc(Br)c1 [Ex. 58]	0%	2%	0%	4%	4%	0%	–	–
CNC(=O)/C(=N/OC)c1cccc(C)c1CO/N=C(\C)c1ccc(Cl)c(C(F)(F)F)c1 [Ex. 60]	–	23%	1%	–	53%	2%	0%	0%
CNC(=O)/C(=N/OC)c1cccc(C)c1CO/N=C(/c1ccccc1)C(F)F [Ex. 73]	1%	0%	–	37%	19%	–	–	–
CO/N=C(/C(=O)OC)c1cccc(C)c1CO/N=C(\C)c1cccc(F)c1 [Ex. 86]	–	12%	3%	–	23%	3%	6%	7%
CO/N=C(/C(=O)OC)c1cccc(C)c1CO/N=C(\C)c1cccc(C#N)c1 [Ex. 104]	–	22%	15%	–	19%	11%	37%	28%
CNC(=O)/C(=N/OC)c1cccc(C)c1CO/N=C(\C)c1ccc(-c2ccccc2)cc1 [Ex. 113]	–	25%	26%	–	41%	25%	17%	6%
CNC(=O)/C(=N/OC)c1cccc(C)c1CO/N=C(\C)c1ccccc1Br [Ex. 120]	–	43%	4%	–	90%	8%	6%	15%
CNC(=O)/C(=N/OC)c1cccc(C)c1CO/N=C(\C)c1ccccc1OC [Ex. 126]	–	87%	34%	–	95%	70%	32%	60%
CNC(=O)/C(=N/OC)c1cccc(C)c1CO/N=C(\C)c1cc(Cl)ccc1Cl [Ex. 130]	33%	20%	1%	67%	40%	1%	–	–
CO/N=C(/C(=O)OC)c1cccc(C)c1CO/N=C(\C)c1ccc(Cl)cc1 [Ex. 154]	–	30%	13%	–	63%	9%	25%	17%
CO/N=C(/C(=O)OC)c1cccc(C)c1CO/N=C(\C)c1ccc(C#N)cc1 [Ex. 155]	–	97%	30%	–	93%	20%	23%	18%
CNC(=O)/C(=N/OC)c1cccc(C)c1CO/N=C(\C)c1ccc(C#N)cc1 [Ex. 159]	–	28%	2%	–	28%	1%	0%	0%
CCc1ccc(/C(C)=N/OCc2c(C)cccc2/C(=N\OC)C(=O)NC)cc1 [Ex. 165]	0%	0%	0%	27%	17%	0%	–	–
CO/N=C(\C)c1ccc(/C(C)=N/OCc2c(C)cccc2/C(=N\OC)C(=O)OC)cc1 [Ex. 181]	–	22%	11%	–	33%	5%	12%	5%

Structure (SMILES)	PHAKPA (F129L) Disease level (%) P2 at 4 ppm [1]	% PHAKPA (F129L) Disease level P2 at 4 ppm [1]	% PHAKPA (F129L) Disease level P2 at 16 ppm [1]	PHAKPA (F129L) Disease level (%) P6 at 4 ppm [2]	% PHAKPA (F129L) Disease level P6 at 4 ppm [2]	% PHAKPA (F129L) Disease level P6 at 16 ppm [2]	PHAKPA (F129L) Disease level (%) P2 at 16 ppm [1]	PHAKPA (F129L) Disease level (%) P6 at 16 ppm [2]
CC/C(=N\OCc1c(C)cccc1/C(=N\OC)C(=O)NC)c1cccc(C(F)(F)F)c1 [Ex. 188]	2%	1%	0%	30%	11%	0%	–	–
CNC(=O)/C(=N/OC)c1cccc(C)c1CO/N=C(\C)c1cccc(-c2noc(C(F)(F)F)n2)c1 [Ex. 205]	–	–	–	–	–	–	1%	1%
CO/N=C(/C(=O)OC)c1cccc(C)c1CO/N=C(\C)c1ccc(OC)cc1 [Ex. 216]	–	77%	13%	–	80%	29%	20%	15%
COC=C(C(=O)OC)c1cccc(C)c1CON=C(C)c1cccc(C(F)(F)F)c1 [Ex. 231]	0%	0%	0%	2%	2%	0%	–	–
COC=C(C(=O)OC)c1cccc(C)c1CON=C(C)c1ccccc1C(F)(F)F [Ex. 244]	–	14%	0%	–	15%	2%	0%	2%
CNC(=O)/C(=N/OC)c1cccc(C)c1CO/N=C(\C)c1cccc(N2CC(F)(F)C2)c1 [Ex. 282]	–	–	15%	–	–	18%	15%	18%
CO/N=C(/C(=O)OC)c1ccccc1CO/N=C(\C)c1cccc(C(F)(F)F)c1 [Trifloxystrobin, trifloxystrobin, reference compound]	71%	–	–	79%	–	–	17%	33%
C=Cc1cccc(/C(=N\OC)C(=O)NC)c1CO/N=C(\C)c1cccc(C(F)(F)F)c1 [compound 14]	–	6%	0%	–	11%	1%	–	–
CNC(=O)/C(=N/OC)c1cccc(C)c1CO/N=C(\C)c1ccc(C#N)c(C(F)(F)F)c1 [compound 17]	–	70%	50%	–	63%	57%	–	–
CO/N=C(/C(=O)OC)c1cccc(C)c1CO/N=C(\C)c1cccc(C(F)F)c1 [compound 19]	–	87%	0%	–	87%	1%	–	–
CNC(=O)/C(=N/OC)c1cccc(C)c1CO/N=C(/c1ccc(Cl)cc1)C(F)F [compound 22]	–	100%	90%	–	100%	93%	–	–
CO/N=C(/C(=O)OC)c1cccc(CF)c1CO/N=C(\C)c1cccc(C(F)(F)F)c1 [compound 25]	–	16%	3%	–	50%	2%	–	–
CNC(=O)/C(=N/OC)c1cccc(CF)c1CO/N=C(\C)c1cccc(C(F)(F)F)c1 [compound 26]	–	12%	0%	–	19%	1%	–	–
CNC(=O)/C(=N/OC)c1cccc(C)c1CO/N=C(\C)c1cccc(OC(F)(F)F)c1 [compound 29]	–	–	0%	–	–	0%	–	–
CNC(=O)/C(=N/OC)c1cccc(C)c1CO/N=C(\C)c1cc(C(F)(F)F)cc(C(F)(F)F)c1 [compound 32]	–	80%	50%	–	73%	43%	–	–
